{"source": "patent US20260216352A1", "about": "“DIRECTED BIOSYNTHESIS OF MODIFIED ANTHRAQUINONE-FUSED ENEDIYNES AS POTENTIAL CANCER THERAPEUTICS” (The Johns Hopkins University, priority 2023, published 2026)", "key": {"[1]": {"test_system": "transplantable cervical carcinoma HeLa, leukemia P388, L-1210 and melanoma B16", "conditions": "cited from earlier work"}, "cancer cells": {"test_system": "cancer cells", "conditions": "read-out: In vitro IC50; cited from earlier work"}, "wild type M. chersina": {"test_system": "wild type M. chersina", "test": "Small-scale supplementation of wild type M. chersina fermentation and analysis of dynemicin A production", "set-up": "species or system Micromonospora chersina", "conditions": "for Restoration of Dyn production: wild type M. chersina, no added NaI / sodium halide in the fermentation medium", "description": "Samples cut from medium 53 agar were used to inoculate 50 mL liquid medium 53 cultures. The cultures were shaken at 28° C. for seven days. Then, samples from these vegetative cultures were used to inoculate H881 media (10 g/L soluble starch, 5 g/L Pharmamedia, 1 g/L CaCO3, 0.05 g/L CuSO4·5 H2O and 0.0005 g/L NaI) for fermentation. These cultures were then shaken at 28° C. for 7 days.\nSamples (5 mL) of fermentations were extracted with 5 mL of ethyl acetate by vortexing the emulsion for one minute and separating the layers by centrifugation at 4000×g. The ethyl acetate layer (4 mL) was isolated and dried by SpeedVac at room temperature. The residue was then resuspended in 200 μL of dimethyl sulfoxide and filtered through 0.2 μm polytetrafluoroethylene filters for analysis on an Agilent 1200 HPLC equipped with a Phenomenex Prodigy ODS3 100 Å, 5 μm, 250×4.6 mm column. Injections were 30 μL and separated with a gradient method increasing from 5% to 95% acetonitrile supplemented with 0.1% formic acid over 40 min, followed by a 10 min hold at 95% acetonitrile before re-equilibration. The method was run at 1 mL/min and monitored at 280, 375, 450 and 570 nm.\nWild type M. chersina mycelial stock […] was plated on med 53, Lam et al., 1995, with 2% agar and grown at 28° C. After 7 d, mycelia from the plate were inoculated into 50 mL med 53 liquid fermentation medium in a 125 mL Erlenmeyer flask and shaken at 250 rpm at 28° C. for another 7 d. This starter culture (2 mL) was inoculated into 50-mL H881 liquid medium, Lam et al., 1995, with or without added NaI (0.5 mg/L) in 250-mL Erlenmeyer flask and shaken at 250 rpm and 28° C. After 24 h, […] of 2-mM stock solutions of 5, 13 and 25 in DMSO (sterile filtered using 0.2-μm PTFE filters) were added to the respective flasks with or without NaI supplementation to provide a final concentration of the added compounds of […]. After shaking at 250 rpm and 28° C. for another 2 d, Diaion® HP-20 (0.50 g, sterilized by autoclave) was added to each flask and shaking was continued for another 4 d. After a total 7 d of fermentation, 5 mL from each sample was extracted with 5 mL of EtOAc by vortexing for 1 min. Extracts were centrifuged at 4000×g and 4° C. for 5 min, and 4 mL of each EtOAc layer was dried by SpeedVac without heating. Samples were dissolved in 200 μL DMSO, filtered through 0.2 μm PTFE filters and analyzed on an Agilent 1200 HPLC using a Prodigy ODS3 100 Å, […], 250×4.6 mm column (Phenomenex). A gradient method of 5-95% ACN+0.1% (v/v) formic acid over 40 min, followed by 10 min hold at 95% ACN before column re-equilibration was used at a 1 mL/min flow rate to achieve separation of metabolites. Production of dynemicin and other related metabolites was monitored at 280 nm, 450 nm, and 570 nm. […]"}, "[2]": {"type": "physicochemical", "from_the_text": "With the indication that substituents larger than two carbons probably are not tolerated by the mutasynthetic approach, we focused on repurposing the methyl ketone to generate other smaller substituents. […] Removal of the acetyl protecting group in refluxing HCl-ethanol solution provided the 9-amino-5-iodoanthracene-g-thiolactone 45 (Scheme 4). Incorporation of 45 in a Δorf15 fermentation was again successful, as hoped, producing deshydroxy amino-DYN analogue 50 as the major product, accompanied by the low production of the desdihydroxy DYN analogue 51 (FIG. 31)."}}, "data": [{"compound": "Calicheamicins", "values": [{"measurement": "In vivo ID50", "setting": "[1]", "result": "0.5 to 1.5", "unit": "µg/kg"}, {"measurement": "IC50", "setting": "cancer cells", "result": "6 to 9", "unit": "nM"}]}, {"compound": "Neocarzinostatin", "values": [{"measurement": "In vivo ID50", "setting": "[1]", "result": 380, "unit": "µg/kg"}, {"measurement": "IC50", "setting": "cancer cells", "result": "225 to 900", "unit": "nM"}]}, {"compound": "O=C1Sc2c3ccccc3cc3c(I)ccc1c23", "note": "[iodoanthracene 5, 5-Iodo-2H-anthra[9,1-bc]thiophen-2-one]", "values": [{"measurement": "Restoration of Dyn production", "setting": "wild type M. chersina", "result": "fully restored Dyn production"}]}, {"compound": "Nc1ccc2cc3c(I)ccc4c3c(c2c1)SC4=O", "note": "[Compound 45, 9-Amino-5-iodo-2H-anthra[9,1-bc]thiophen-2-one]", "values": [{"measurement": "Oxidative stability", "setting": "[2]", "result": "oxidatively unstable"}]}, {"compound": "Nc1ccc2c3c(c4ccccc4cc13)SC2=O", "note": "[aminoanthracene 25, 5-Amino-2H-anthra[9,1-bc]thiophen-2-one]", "values": [{"measurement": "Restoration of Dyn production", "setting": "wild type M. chersina", "result": "failed to rescue Dyn production"}]}, {"compound": "O=C1Sc2c3ccccc3cc3c(Br)ccc1c23", "note": "[bromoanthracene 13, 5-Bromo-2H-anthra[9,1-bc]thiophen-2-one]", "values": [{"measurement": "Effect on Dyn production", "setting": "wild type M. chersina; wild type M. chersina fermentation medium with added sodium iodide, increasing concentrations of 13", "result": "decrease Dyn production"}, {"measurement": "Restoration of Dyn production", "setting": "wild type M. chersina", "result": "not restored"}]}]}
